# Literature values, collected in US9353170B2, “Long-acting transient polymer conjugates of exendin” (SANOFI-AVENTIS DEUTSCHLAND GMBH, priority 2007, dated 2016).
# Where no end group is shown, it is not given here. PEG 2 kDa = polyethylene glycol, 2 kDa
# Experiments:
# [1] = tested on: normoglycaemic mice; details: subcutaneous injection
# [2] = tested on: db/db mice; details: 10 μg/mouse subcutaneously
# [3] = incubation in a human plasma model
# [4] = tested on: rat pancreas islets
substance,measurement,setting,value
PEG40 kDa-FMS-exendin-4: transiently PEGylated Exendin-4 based on a traceless FMS-linker (Shechter et al.),duration of maintained glucose lowering effect,[1],24 h
same,glucose lowering effect,[1],30%
[2-Sulfo-9-fluorenylmethoxycarbonyl]3-exendin-4 [FMS3-exendin-4],sustained reduction in blood glucose,[2],50%
same,time of return of blood glucose to baseline value,[2],45 h
same,time at which cleavage is complete,[3],40 h
"N-terminal PEGylation of GLP-1 with only PEG2kDa: GLP-1 N-terminally PEGylated with PEG2kDa (Lee et al. 2005) ({PEG 2 kDa}-HAEGTFTSDVSSYLEGQAAKEFIAWLVKGR; not fully specified (C-terminus); ends and bridges not checked; UniProt P01275 98-127, looked up)",activity on stimulating insulin release,[4],nearly completely abolished
